How the values were obtained:
[1] = Aerodynamic particle size measurement of mometasone furoate pMDI suspensions (Next Generation impactor); assay type: physicochemical
From the text: In general, aerosols with mass median aerodynamic diameters (MMAD) of at least 1 μm but less than 5 μm in size are suitable for effective deep lung deposition for therapeutic effect. Herein, fine particle fraction (FPF) is defined as the percentage of the ex-actuator delivered API having a MMAD of less than 5 μm when tested in vitro. Herein, “ex-actuator” delivered dose is used to describe the amount of API delivered past the actuator of a pMDI. Therefore, an aerosol with a high FPF is typically suitable for deep lung deposition.
(§1) In the following examples, dose consistency was determined by in vitro measurement of single actuation dose content at start, middle and end of pMDI unit life in line with U.S. Pharmacopeia (USP)<601>, using a flow rate of 28.3 L/min and apparatus A. Aerodynamic particle size distribution of the pMDI suspension aerosols was measured at start of unit life in line with U.S. Pharmacopeia (USP)<601> using a Next Generation impactor without pre-separator (apparatus 6) and a flow rate of 30 L/min.
(§2) Suspensions of micronized mometasone furoate in HFA-152a or HFO-1234ze(E) were prepared. A first set of suspensions included no ethanol. A second set of suspensions included 2% ethanol by weight. Each suspension included an amount of mometasone furoate to provide a nominal delivered dose (ex-valve) of 0.5 mg/actuation (10.0 mg/mL) or 1.0 mg/actuation (20.0 mg/mL). Two further suspensions including no ethanol were prepared which included an amount of mometasone furoate to provide a nominal delivered dose (ex-valve) of 2.0 mg/actuation (40.0 mg/mL).
In total, ten suspension pMDI formulations were prepared in triplicate with sufficient fill weight to provide 60 actuations. Each suspension was filled into Kindeva FEP coated canisters, crimped with a Kindeva 50-μL valve. Each pMDI unit was sonicated for at least 10 minutes to disperse the suspended drug and tested with a Kindeva actuator having an exit orifice diameter (EOD) of 0.4 mm or 0.25 mm.
The mass median aerodynamic diameter (MMAD) and fine particle fraction (FPF) of each pMDI unit were measured by Next Generation cascade impaction (N=3) for each pMDI suspension.

[2] = Through life dose consistency of mometasone furoate pMDI suspensions (USP <601>, apparatus A); assay type: physicochemical
Procedure: as §1, §2
In total, ten suspension pMDI formulations were prepared in triplicate with sufficient fill weight to provide 60 actuations. Each suspension was filled into Kindeva FEP coated canisters, crimped with a Kindeva 50-μL valve. Each pMDI unit was sonicated for at least 10 minutes to disperse the suspended drug and tested with a Kindeva actuator having an exit orifice diameter (EOD) of 0.4 mm.
The through-life (TL) dose consistency of each pMDI unit was determined by measuring the mean ex-actuator delivered dose in micrograms of mometasone furoate (N=3) at the start of life (SoL), middle of life (MOL) and end of life (EoL) of the unit.

[3] = nominal ex-valve 0.5 mg/act, HFA-152a/2% EtOH (w/w), actuator exit orifice diameter 0.4 mm
[4] = nominal ex-valve 0.5 mg/act, HFA-152a, actuator exit orifice diameter 0.4 mm
[5] = nominal ex-valve 0.5 mg/act, HFO-1234ze(E)/2% EtOH (w/w), actuator exit orifice diameter 0.25 mm
[6] = nominal ex-valve 0.5 mg/act, HFO-1234ze(E)/2% EtOH (w/w), actuator exit orifice diameter 0.4 mm
[7] = nominal ex-valve 0.5 mg/act, HFO-1234ze(E), actuator exit orifice diameter 0.25 mm
[8] = nominal ex-valve 0.5 mg/act, HFO-1234ze(E), actuator exit orifice diameter 0.4 mm
[9] = nominal ex-valve 1.0 mg/act, HFA-152a/2% EtOH (w/w), actuator exit orifice diameter 0.25 mm
[10] = nominal ex-valve 1.0 mg/act, HFA-152a/2% EtOH (w/w), actuator exit orifice diameter 0.4 mm
[11] = nominal ex-valve 1.0 mg/act, HFA-152a, actuator exit orifice diameter 0.25 mm
[12] = nominal ex-valve 1.0 mg/act, HFA-152a, actuator exit orifice diameter 0.4 mm
[13] = nominal ex-valve 1.0 mg/act, HFO-1234ze(E)/2% EtOH (w/w), actuator exit orifice diameter 0.25 mm
[14] = nominal ex-valve 1.0 mg/act, HFO-1234ze(E)/2% EtOH (w/w), actuator exit orifice diameter 0.4 mm
[15] = nominal ex-valve 1.0 mg/act, HFO-1234ze(E), actuator exit orifice diameter 0.25 mm
[16] = nominal ex-valve 1.0 mg/act, HFO-1234ze(E), actuator exit orifice diameter 0.4 mm
[17] = nominal ex-valve 2.0 mg/act, HFA-152a, actuator exit orifice diameter 0.4 mm
[18] = nominal ex-valve 2.0 mg/act, HFO-1234ze(E), actuator exit orifice diameter 0.4 mm
[19] = nominal ex-valve 0.5 mg/act, HFA-152a
[20] = nominal ex-valve 0.5 mg/act, HFA-152a/2% EtOH (w/w)
[21] = nominal ex-valve 0.5 mg/act, HFO-1234ze(E)
[22] = nominal ex-valve 0.5 mg/act, HFO-1234ze(E)/2% EtOH (w/w)
[23] = nominal ex-valve 1.0 mg/act, HFA-152a
[24] = nominal ex-valve 1.0 mg/act, HFA-152a/2% EtOH (w/w)
[25] = nominal ex-valve 1.0 mg/act, HFO-1234ze(E)
[26] = nominal ex-valve 1.0 mg/act, HFO-1234ze(E)/2% EtOH (w/w)
[27] = nominal ex-valve 2.0 mg/act, HFA-152a
[28] = nominal ex-valve 2.0 mg/act, HFO-1234ze(E)

C[C@@H]1C[C@H]2[C@@H]3CCC4=CC(=O)C=C[C@]4(C)[C@@]3(Cl)[C@@H](O)C[C@]2(C)[C@@]1(OC(=O)c1ccco1)C(=O)CCl [mometasone furoate]
FPF with actuator EOD 0.25 mm compared with EOD 0.4 mm ([1]; 0.5 and 1.0 mg/actuation in HFO-1234ze(E), 1.0 mg/actuation in HFA-152a): consistently greater FPFs | MMAD values of aerosols, suitability ([1]; HFA-152a or HFO-1234ze(E), with and without ethanol, in-vitro): in an appropriate respirable range | FPF without ethanol compared with corresponding suspensions with 2% ethanol by weight ([1]; HFA-152a or HFO-1234ze(E), all nominal doses): generally produced greater FPFs | Mean FPF [1, 3]: 34.0% | Mean MMAD [1, 3]: 3.55 μm | Mean FPF [1, 4]: 37.5% | Mean MMAD [1, 4]: 3.56 μm | Mean FPF [1, 5]: 55.3% | Mean MMAD [1, 5]: 3.70 μm | Mean FPF [1, 6]: 39.0% | Mean MMAD [1, 6]: 3.70 μm | Mean FPF [1, 7]: 66.6% | Mean MMAD [1, 7]: 3.41 μm | Mean FPF [1, 8]: 49.8% | Mean MMAD [1, 8]: 3.36 μm | Mean FPF [1, 9]: 45.3% | Mean MMAD [1, 9]: 3.91 μm | Mean FPF [1, 10]: 31.1% | Mean MMAD [1, 10]: 3.90 μm | Mean FPF [1, 11]: 49.1% | Mean MMAD [1, 11]: 3.75 μm | Mean FPF [1, 12]: 29.4% | Mean MMAD [1, 12]: 4.13 μm | Mean FPF [1, 13]: 52.5% | Mean MMAD [1, 13]: 3.84 μm | Mean FPF [1, 14]: 31.8% | Mean MMAD [1, 14]: 4.01 μm | Mean FPF [1, 15]: 58.8% | Mean MMAD [1, 15]: 3.61 μm | Mean FPF [1, 16]: 39.5% | Mean MMAD [1, 16]: 3.69 μm | Mean FPF [1, 17]: 19.5% | Mean MMAD [1, 17]: 5.09 μm | Mean FPF [1, 18]: 22.5% | Mean MMAD [1, 18]: 4.87 μm | FPF and MMAD in HFO-1234ze(E) compared with corresponding suspensions in HFA-152a ([1]; with or without ethanol): consistently produced greater FPFs and generally smaller MMADs | effect of addition of ethanol on through unit life ex-actuator delivered dose consistency ([2]; 2% ethanol by weight, HFA-152a or HFO-1234ze(E)): did not always substantially improve | through unit life ex-actuator delivered dose consistency ([2]; HFA-152a or HFO-1234ze(E) with and without 2% ethanol by weight): relatively consistent | EoL mean delivered dose [2, 19]: 433.2 μg/act | MoL mean delivered dose [2, 19]: 433.8 μg/act | SoL mean delivered dose [2, 19]: 457.7 μg/act | TL mean delivered dose [2, 19]: 441.6 μg/act | EoL mean delivered dose [2, 20]: 450.9 μg/act | MoL mean delivered dose [2, 20]: 427.3 μg/act | SoL mean delivered dose [2, 20]: 408.9 μg/act | TL mean delivered dose [2, 20]: 429.1 μg/act | EoL mean delivered dose [2, 21]: 430.8 μg/act | MoL mean delivered dose [2, 21]: 434.7 μg/act | SoL mean delivered dose [2, 21]: 457.5 μg/act | TL mean delivered dose [2, 21]: 441.0 μg/act | EoL mean delivered dose [2, 22]: 465.7 μg/act | MoL mean delivered dose [2, 22]: 453.1 μg/act | SoL mean delivered dose [2, 22]: 433.9 μg/act | TL mean delivered dose [2, 22]: 450.9 μg/act | EoL mean delivered dose [2, 23]: 705.6 μg/act | MoL mean delivered dose [2, 23]: 1018.3 μg/act | SoL mean delivered dose [2, 23]: 1087.9 μg/act | TL mean delivered dose [2, 23]: 937.3 μg/act | EoL mean delivered dose [2, 24]: 759.7 μg/act | MoL mean delivered dose [2, 24]: 936.3 μg/act | SoL mean delivered dose [2, 24]: 906.5 μg/act | TL mean delivered dose [2, 24]: 867.5 μg/act | EoL mean delivered dose [2, 25]: 934.4 μg/act | MoL mean delivered dose [2, 25]: 931.9 μg/act | SoL mean delivered dose [2, 25]: 752.4 μg/act | TL mean delivered dose [2, 25]: 855.3 μg/act | EoL mean delivered dose [2, 26]: 848.1 μg/act | MoL mean delivered dose [2, 26]: 1003.4 μg/act | SoL mean delivered dose [2, 26]: 852.6 μg/act | TL mean delivered dose [2, 26]: 901.4 μg/act | EoL mean delivered dose [2, 27]: 1613.8 μg/act | MoL mean delivered dose [2, 27]: 1771.5 μg/act | SoL mean delivered dose [2, 27]: 1815.1 μg/act | TL mean delivered dose [2, 27]: 1733.4 μg/act | EoL mean delivered dose [2, 28]: 1837.0 μg/act | MoL mean delivered dose [2, 28]: 1725.9 μg/act | SoL mean delivered dose [2, 28]: 1755.0 μg/act | TL mean delivered dose [2, 28]: 1772.6 μg/act

From patent US20260249027A1, “METERED DOSE INHALERS AND HIGH-DOSE SUSPENSIONS” (Kindeva Drug Delivery L.P., priority 2023, published 2026)
